Reference: patent US8329717B2, “Pyrimidine derivatives and their use for controlling undesired plant growth” (Bayer Cropscience AG, priority 2008, dated 2012)

Key:
[1] = system: Abutilon theophrasti; test: Pre-emergence herbicidal effect; assay type: in vivo; settings: Dosage 320 g/ha, visual scoring after 3 weeks vs untreated controls, 100% = plants have died
Outline: (§1)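 Pre-emergence, greenhouse. Sandy loam, seeds covered with earth; WP/EC formulations in water (600–800 l/ha, +0.2% wetting agent) applied to soil surface, g/ha. Read-out: visual % effect at 3 weeks vs untreated.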

[2] = system: Alopecurus myosuroides; test: Pre-emergence herbicidal effect; assay type: in vivo; settings: Dosage 320 g/ha, visual scoring after 3 weeks vs untreated controls, 100% = plants have died
Outline: as §1

[3] = system: Amaranthus retroflexus; test: Pre-emergence herbicidal effect; assay type: in vivo; settings: Dosage 320 g/ha, visual scoring after 3 weeks vs untreated controls, 100% = plants have died
Outline: as §1

[4] = system: Avena fatua; test: Pre-emergence herbicidal effect; assay type: in vivo; settings: Dosage 320 g/ha, visual scoring after 3 weeks vs untreated controls, 100% = plants have died
Outline: as §1

[5] = system: Cyperus esculentus; test: Pre-emergence herbicidal effect; assay type: in vivo; settings: Dosage 320 g/ha, visual scoring after 3 weeks vs untreated controls, 100% = plants have died
Outline: as §1

[6] = system: Echinochloa crus-galli; test: Pre-emergence herbicidal effect; assay type: in vivo; settings: Dosage 320 g/ha, visual scoring after 3 weeks vs untreated controls, 100% = plants have died
Outline: as §1

[7] = system: Lolium multiflorum; test: Pre-emergence herbicidal effect; assay type: in vivo; settings: Dosage 320 g/ha, visual scoring after 3 weeks vs untreated controls, 100% = plants have died
Outline: as §1

[8] = system: Matricaria inodora; test: Pre-emergence herbicidal effect; assay type: in vivo; settings: Dosage 320 g/ha, visual scoring after 3 weeks vs untreated controls, 100% = plants have died
Outline: as §1

[9] = system: Setaria viridis; test: Pre-emergence herbicidal effect; assay type: in vivo; settings: Dosage 320 g/ha, visual scoring after 3 weeks vs untreated controls, 100% = plants have died
Outline: as §1

[10] = system: Stellaria media; test: Pre-emergence herbicidal effect; assay type: in vivo; settings: Dosage 320 g/ha, visual scoring after 3 weeks vs untreated controls, 100% = plants have died
Outline: as §1

[11] = system: Veronica persica; test: Pre-emergence herbicidal effect; assay type: in vivo; settings: Dosage 320 g/ha, visual scoring after 3 weeks vs untreated controls, 100% = plants have died
Outline: as §1

[12] = system: PHBPU; test: Post-emergence herbicidal effect; assay type: in vivo; settings: Dosage 320 g/ha, one-leaf stage, visual scoring after ca. 3 weeks vs untreated controls, 100% = plants have died
Outline: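 Greenhouse weeds or crops in sandy loam treated at one-leaf stage (2 to 3 weeks after sowing) by spraying WP or EC formulations at 600 to 800 l/ha water with 0.2% wetting agent; dose in g/ha. Visual % effect scored after ca. 3 weeks against untreated controls (100% = dead, 0% = as control).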

[13] = system: Abutilon theophrasti; test: Post-emergence herbicidal effect; assay type: in vivo; settings: Dosage 320 g/ha, one-leaf stage, visual scoring after ca. 3 weeks vs untreated controls, 100% = plants have died
Outline: (§2)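 Seeds are sown in sandy loam and raised in a greenhouse. When seedlings reach one leaf, two to three weeks on, green parts are sprayed with the wettable-powder or emulsion-concentrate formulation at a stated grams-per-hectare dose. After roughly three weeks, injury is rated by eye as percent effect against controls.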

[14] = system: Alopecurus myosuroides; test: Post-emergence herbicidal effect; assay type: in vivo; settings: Dosage 320 g/ha, one-leaf stage, visual scoring after ca. 3 weeks vs untreated controls, 100% = plants have died
Outline: as §2

[15] = system: Amaranthus retroflexus; test: Post-emergence herbicidal effect; assay type: in vivo; settings: Dosage 320 g/ha, one-leaf stage, visual scoring after ca. 3 weeks vs untreated controls, 100% = plants have died
Outline: as §2

[16] = system: Avena fatua; test: Post-emergence herbicidal effect; assay type: in vivo; settings: Dosage 320 g/ha, one-leaf stage, visual scoring after ca. 3 weeks vs untreated controls, 100% = plants have died
Outline: as §2

[17] = system: Echinochloa crus-galli; test: Post-emergence herbicidal effect; assay type: in vivo; settings: Dosage 320 g/ha, one-leaf stage, visual scoring after ca. 3 weeks vs untreated controls, 100% = plants have died
Outline: as §2

[18] = system: Lolium multiflorum; test: Post-emergence herbicidal effect; assay type: in vivo; settings: Dosage 320 g/ha, one-leaf stage, visual scoring after ca. 3 weeks vs untreated controls, 100% = plants have died
Outline: as §2

[19] = system: Matricaria inodora; test: Post-emergence herbicidal effect; assay type: in vivo; settings: Dosage 320 g/ha, one-leaf stage, visual scoring after ca. 3 weeks vs untreated controls, 100% = plants have died
Outline: as §2

[20] = system: Polygonum convolvulus; test: Post-emergence herbicidal effect; assay type: in vivo; settings: Dosage 320 g/ha, one-leaf stage, visual scoring after ca. 3 weeks vs untreated controls, 100% = plants have died
Outline: as §2

[21] = system: Setaria viridis; test: Post-emergence herbicidal effect; assay type: in vivo; settings: Dosage 320 g/ha, one-leaf stage, visual scoring after ca. 3 weeks vs untreated controls, 100% = plants have died
Outline: as §2

[22] = system: Stellaria media; test: Post-emergence herbicidal effect; assay type: in vivo; settings: Dosage 320 g/ha, one-leaf stage, visual scoring after ca. 3 weeks vs untreated controls, 100% = plants have died
Outline: as §2

[23] = system: Veronica persica; test: Post-emergence herbicidal effect; assay type: in vivo; settings: Dosage 320 g/ha, one-leaf stage, visual scoring after ca. 3 weeks vs untreated controls, 100% = plants have died
Outline: as §2

[24] = system: Viola tricolor; test: Post-emergence herbicidal effect; assay type: in vivo; settings: Dosage 320 g/ha, one-leaf stage, visual scoring after ca. 3 weeks vs untreated controls, 100% = plants have died
Outline: as §2

[25] = logp (HCOOH), chemicophysical data; settings: for chromatographic logP: HCOOH (formic acid)
[26] = system: Polygonum convolvulus; test: Pre-emergence herbicidal effect; assay type: in vivo; settings: Dosage 320 g/ha, visual scoring after 3 weeks vs untreated controls, 100% = plants have died
Outline: as §1

[27] = system: Viola tricolor; test: Pre-emergence herbicidal effect; assay type: in vivo; settings: Dosage 320 g/ha, visual scoring after 3 weeks vs untreated controls, 100% = plants have died
Outline: as §1

SMILES: Cc1ccc2c(c1)[C@H](Nc1nc(C)c(C#N)c(N)n1)[C@@H](C)C2 [Example 1.17]
- Pre-emergence herbicidal effect ABUTH [1]: 100%
- Pre-emergence herbicidal effect ALOMY [2]: 100%
- Pre-emergence herbicidal effect AMARE [3]: 100%
- Pre-emergence herbicidal effect AVEFA [4]: 90%
- Pre-emergence herbicidal effect CYPES [5]: 90%
- Pre-emergence herbicidal effect ECHCG [6]: 100%
- Pre-emergence herbicidal effect LOLMU [7]: 100%
- Pre-emergence herbicidal effect MATIN [8]: 100%
- Pre-emergence herbicidal effect SETVI [9]: 100%
- Pre-emergence herbicidal effect STEME [10]: 100%
- Pre-emergence herbicidal effect VERPE [11]: 100%
- Post-emergence herbicidal effect PHBPU [12]: 90%
- Post-emergence herbicidal effect ABUTH [13]: 87%
- Post-emergence herbicidal effect ALOMY [14]: 90%
- Post-emergence herbicidal effect AMARE [15]: 97%
- Post-emergence herbicidal effect AVEFA [16]: 80%
- Post-emergence herbicidal effect ECHCG [17]: 93%
- Post-emergence herbicidal effect LOLMU [18]: 93%
- Post-emergence herbicidal effect MATIN [19]: 85%
- Post-emergence herbicidal effect POLCO [20]: 80%
- Post-emergence herbicidal effect SETVI [21]: 90%
- Post-emergence herbicidal effect STEME [22]: 97%
- Post-emergence herbicidal effect VERPE [23]: 87%
- Post-emergence herbicidal effect VIOTR [24]: 90%
- logp (HCOOH) [25]: solid, m.p.: 166.4° C.; logp (HCOOH): 2.40; 1H-NMR (CDCl3, 400 MHZ, δ in ppm): 1.25

SMILES: Cc1ccc2c(c1)[C@H](Nc1ncc(C#N)c(N)n1)[C@@H](C)C2 [Example 1.35]
- Pre-emergence herbicidal effect ABUTH [1]: 100%
- Pre-emergence herbicidal effect ALOMY [2]: 100%
- Pre-emergence herbicidal effect AMARE [3]: 100%
- Pre-emergence herbicidal effect AVEFA [4]: 100%
- Pre-emergence herbicidal effect CYPES [5]: 100%
- Pre-emergence herbicidal effect ECHCG [6]: 100%
- Pre-emergence herbicidal effect LOLMU [7]: 100%
- Pre-emergence herbicidal effect MATIN [8]: 100%
- Pre-emergence herbicidal effect POLCO [26]: 100%
- Pre-emergence herbicidal effect SETVI [9]: 100%
- Pre-emergence herbicidal effect STEME [10]: 100%
- Pre-emergence herbicidal effect VERPE [11]: 100%
- Pre-emergence herbicidal effect VIOTR [27]: 100%
- Post-emergence herbicidal effect PHBPU [12]: 90%
- Post-emergence herbicidal effect ABUTH [13]: 95%
- Post-emergence herbicidal effect ALOMY [14]: 100%
- Post-emergence herbicidal effect AMARE [15]: 93%
- Post-emergence herbicidal effect AVEFA [16]: 95%
- Post-emergence herbicidal effect ECHCG [17]: 100%
- Post-emergence herbicidal effect LOLMU [18]: 90%
- Post-emergence herbicidal effect MATIN [19]: 85%
- Post-emergence herbicidal effect POLCO [20]: 90%
- Post-emergence herbicidal effect SETVI [21]: 95%
- Post-emergence herbicidal effect STEME [22]: 95%
- Post-emergence herbicidal effect VERPE [23]: 95%
- Post-emergence herbicidal effect VIOTR [24]: 90%
- logp (HCOOH) [25]: wax-like; logp (HCOOH): 2.35; 1H-NMR (CDCl3, 400 MHZ, δ in ppm): 1.25 (d, 3H, CH3);

SMILES: Cc1ccc2c(c1)[C@H](Nc1nc(N)c(C#N)c(-c3ccccc3F)n1)[C@@H](C)C2 [Example 1.104, 4-Amino-2-{[(1R,2S)-2,6-dimethyl-2,3-dihydro-1H-inden-1-yl]amino}-6-(2-fluorophenyl)pyrimidine-5-carbonitrile]
- melting point: 67 to 68 °C
- chromatographic logP [25]: 3.65

SMILES: Cc1ccc2c(c1)[C@H](Nc1ncc(Cl)c(N)n1)[C@@H](C)C2 [Example 1.105]
- Pre-emergence herbicidal effect ABUTH [1]: 100%
- Pre-emergence herbicidal effect ALOMY [2]: 100%
- Pre-emergence herbicidal effect AMARE [3]: 100%
- Pre-emergence herbicidal effect AVEFA [4]: 80%
- Pre-emergence herbicidal effect CYPES [5]: 100%
- Pre-emergence herbicidal effect ECHCG [6]: 100%
- Pre-emergence herbicidal effect LOLMU [7]: 100%
- Pre-emergence herbicidal effect MATIN [8]: 100%
- Pre-emergence herbicidal effect POLCO [26]: 100%
- Pre-emergence herbicidal effect SETVI [9]: 100%
- Pre-emergence herbicidal effect STEME [10]: 100%
- Pre-emergence herbicidal effect VERPE [11]: 100%
- Pre-emergence herbicidal effect VIOTR [27]: 100%
- Post-emergence herbicidal effect PHBPU [12]: 90%
- Post-emergence herbicidal effect ABUTH [13]: 90%
- Post-emergence herbicidal effect ALOMY [14]: 80%
- Post-emergence herbicidal effect AMARE [15]: 90%
- Post-emergence herbicidal effect AVEFA [16]: 90%
- Post-emergence herbicidal effect ECHCG [17]: 100%
- Post-emergence herbicidal effect LOLMU [18]: 90%
- Post-emergence herbicidal effect MATIN [19]: 90%
- Post-emergence herbicidal effect POLCO [20]: 80%
- Post-emergence herbicidal effect SETVI [21]: 90%
- Post-emergence herbicidal effect STEME [22]: 90%
- Post-emergence herbicidal effect VIOTR [24]: 80%
- logp (HCOOH) [25]: wax-like; logp (HCOOH): 1.27; 1H-NMR (CDCl3, 400 MHZ, δ in ppm): 1.30 (d, 3H, CH3);

SMILES: Nc1nc(N[C@@H]2CCCc3ccccc32)ncc1C(F)(F)F [Example 1.108, N2-[(1R)-1,2,3,4-Tetrahydronaphthalen-1-yl]-5-(trifluoromethyl)pyrimidine-2,4-diamine]
- melting point: 130.8 °C
- chromatographic logP [25]: 1.64

SMILES: C#Cc1cnc(N[C@H]2c3cc(C)ccc3C[C@@H]2C)nc1N [Example 1.119, N2-[(1R,2S)-2,6-Dimethyl-2,3-dihydro-1H-inden-1-yl]-5-ethynylpyrimidine-2,4-diamine]
- melting point: 99 °C
- chromatographic logP [25]: 1.43
